Data reported in BindingDB's records for PubMed 33228976 (Massachusetts College of Pharmacy and Health Sciences …, 2021).

Biological target: GTPase KRas (Homo sapiens, UniProt P01116)
Experiment: Antiproliferative activity against human COLO 320DM cells harboring wild type KRAS assessed as reduction in cell viability incubated for 24 hrs in presence of MVA

Sequence of GTPase KRas (P01116 whole entry): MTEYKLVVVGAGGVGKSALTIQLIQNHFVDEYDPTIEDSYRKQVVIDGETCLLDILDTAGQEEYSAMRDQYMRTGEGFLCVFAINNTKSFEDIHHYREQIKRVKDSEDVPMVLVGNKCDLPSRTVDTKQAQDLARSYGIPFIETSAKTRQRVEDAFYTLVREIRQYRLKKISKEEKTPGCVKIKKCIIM

In the case of `CCCC[C@@H](C)C=C(C)C=C(C)C(=O)NC1=C[C@@](O)(C=CC=CC=CC(=O)NC2C(=O)CCC2=O)[C@@H]2O[C@@H]2C1=O` [(R)-2,4,6-Trimethyl-deca-2,4-dienoic acid {(1S,5S,6R)-5-hydroxy-5-[(1E,3E,5E)-6-(2-hydroxy-5-oxo-cyclopent-1-enylcarbamoyl)-hexa-1,3,5-trienyl]-2-oxo-7-oxa-bicyclo[4.1.0]hept-3-en-3-yl}-amide], the IC50 is reported as 3.58 µM.
